Assay results taken from the supplement of paper PMC11208160.

Experiment: recombinant barcode read abundance after kanamycin selection (control-corrected) (log10(CPM+1)); higher = more efficient recombination; sequences stand for … in AGTGCAGAGAAAATCGGCCAGTTTTCTCTGCCTGCAGTCCGCATGCCGT…AGATTTATGCAGCGGACTGCCTTTCTCCCAAAGTGATAAACCGGACAGTATCATGGACCGGTTTTCCCGGTAATCCGTATTTGCAAGGTTGGTTTCACT; site = the 11-nt target
In short: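 A vector carrying a T7-inducible recombinase and the last 73 bp of the bridge RNA received, by Gibson cloning, oligos encoding a promoter, target, barcode and the first 104 bridge RNA bases under J23119. The pooled constructs entered E. coli together with a donor plasmid by electroporation. Selection used chloramphenicol/ampicillin/kanamycin with 0.1 mM IPTG, with chloramphenicol/ampicillin LB agar as the control, each in two replicates. Recombination efficiency is the averaged, control-corrected counts-per-million of barcodes at recombinant junctions, reported as log10(CPM+1).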
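Also: IS621 recombinase and bridge RNA in Escherichia coli cells.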

Sequence | recombinant barcode read abundance (log10)
AGGAGCCCTTGGGTTCTAACCTGTTGCTC (site AGGAGCCCTTA) | 0.0844
AGGAGCCCTTGGGTTCTAACCTGTTGCTT (site AGGAGCCCTAA) | 1.25
AGGAGCCCTTGGGTTCTAACCTGTTGCTT (site AGGAGCCCTCA) | 0.0777
AGGAGCCCTTGGGTTCTAACCTGTTGCTT (site AGGAGCCCTGA) | 0.0286
AGGAGCCCTTGGGTTCTAACCTGTTGCTT (site AGGAGCCCTTA) | 0.271
AGGAGCGCTTGGGTTCTAACCTGTTGCCT (site AGCAGCTCTAG) | 0.105
AGGAGCGCTTGGGTTCTAACCTGTTGCCT (site AGGAGCGCTAG) | 1.95
AGGAGTCCTTGGGTTCTAACCTGTTGCAG (site AGGAGTCCTCT) | 2.24
AGGAGTCCTTGGGTTCTAACCTGTTGCAG (site GTACAAGCTAG) | 0.239
AGGCAGACTTGGGTTCTAACCTGTTGCCA (site AGGAAGACTTG) | 0.0571
AGGCAGACTTGGGTTCTAACCTGTTGCCA (site AGGCAGACTTG) | 0.699
AGGCAGACTTGGGTTCTAACCTGTTGCCA (site AGGGAGACTTG) | 0.216
AGGCAGACTTGGGTTCTAACCTGTTGCCA (site AGGTAGACTTG) | 0.639
AGGCAGTCTTGGGTTCTAACCTGTTGCCT (site AGGCAGTCTAG) | 0.444
AGGCAGTCTTGGGTTCTAACCTGTTGCCT (site AGGCCGTCTAC) | 0.0845
AGGCGCCCTTGGGTTCTAACCTGTTGCAA (site AGGCGCCCTAT) | 0.187
AGGCGCCCTTGGGTTCTAACCTGTTGCAA (site AGGCGCCCTCT) | 0.0506
AGGCGCCCTTGGGTTCTAACCTGTTGCAA (site AGGCGCCCTGT) | 0.0953
AGGCGCCCTTGGGTTCTAACCTGTTGCAA (site AGGCGCCCTTT) | 0.635
AGGCTGACTTGGGTTCTAACCTGTTGCCT (site AGGCTGACTAG) | 0.94

Sequence | recombinant barcode read abundance (log10)
AGGCTGACTTGGGTTCTAACCTGTTGCCT (site AGGCTGCCTAG) | 0.0128
AGGCTGACTTGGGTTCTAACCTGTTGCCT (site AGGCTGGCTAG) | 0.0298
AGGCTGACTTGGGTTCTAACCTGTTGCCT (site AGGCTGTCTAG) | 0.139
AGGCTTACTTGGGTTCTAACCTGTTGCAG (site AGGCTTACTCT) | 1.47
AGGCTTACTTGGGTTCTAACCTGTTGCAG (site AGTCCTACTCT) | 0.0844
AGGGACTCTTGGGTTCTAACCTGTTGCCG (site AGGGACTCTCG) | 1.71
AGGGACTCTTGGGTTCTAACCTGTTGCCG (site TGGGACACTCG) | 0.0423
AGGGAGACTTGGGTTCTAACCTGTTGCTC (site AGGGAGACTGA) | 2.64
AGGGAGACTTGGGTTCTAACCTGTTGCTC (site CACTTTGCTAG) | 0.151
AGGGATCCTTGGGTTCTAACCTGTTGCGG (site AAGTATCCTCC) | 0.032
AGGGATCCTTGGGTTCTAACCTGTTGCGG (site AGGGATCCTCC) | 2.7
AGGGCACCTTGGGTTCTAACCTGTTGCCA (site AGGGCACCTTG) | 1.26
AGGGCACCTTGGGTTCTAACCTGTTGCCA (site ATGGCACCTAG) | 0.186
AGGGCTTCTTGGGTTCTAACCTGTTGCTA (site ACGGCTTCTTA) | 0
AGGGCTTCTTGGGTTCTAACCTGTTGCTA (site AGGGCTTCTTA) | 1.87
AGGGGAGCTTGGGTTCTAACCTGTTGCGG (site AGGGGAGCTCC) | 2.35
AGGGGAGCTTGGGTTCTAACCTGTTGCGG (site ATGGGAGCTTC) | 0.0749
AGGGGATCTTGGGTTCTAACCTGTTGCCT (site AGGGGATCTAG) | 1.86
AGGGGATCTTGGGTTCTAACCTGTTGCCT (site AGTGGAGCTAG) | 0.0518
AGGGGCACTTGGGTTCTAACCTGTTGCCG (site ACGGTCACTCG) | 0.104

Sequence | recombinant barcode read abundance (log10)
AGGGGCACTTGGGTTCTAACCTGTTGCCG (site AGGGGCACTCG) | 1.83
AGGGGCTCTTGGGTTCTAACCTGTTGCTG (site ACGGGCTCTAA) | 0.0932
AGGGGCTCTTGGGTTCTAACCTGTTGCTG (site AGGGGCTCTCA) | 3.01
AGGTAACCTTGGGTTCTAACCTGTTGCCT (site AGGTAACCTAG) | 0.401
AGGTAACCTTGGGTTCTAACCTGTTGCCT (site CGGTAACCTAG) | 0.23
AGGTAACCTTGGGTTCTAACCTGTTGCCT (site GGGTAACCTAG) | 0.885
AGGTAACCTTGGGTTCTAACCTGTTGCCT (site TGGTAACCTAG) | 0.179
AGGTCAACTTGGGTTCTAACCTGTTGCCG (site AGGTCAACTCG) | 0.0699
AGGTCAACTTGGGTTCTAACCTGTTGCCG (site TAAGGTCCTAA) | 0.0279
AGGTCACCTTGGGTTCTAACCTGTTGCCT (site AGGTCACCTAA) | 0.0905
AGGTCACCTTGGGTTCTAACCTGTTGCCT (site AGGTCACCTAC) | 0.897
AGGTCACCTTGGGTTCTAACCTGTTGCCT (site AGGTCACCTAG) | 1.83
AGGTCACCTTGGGTTCTAACCTGTTGCCT (site AGGTCACCTAT) | 0.221
AGGTCCGCTTGGGTTCTAACCTGTTGCTA (site AGGTCCGCTTA) | 1.4
AGGTCCGCTTGGGTTCTAACCTGTTGCTA (site CACCAGCCTAT) | 0.026
AGGTCCTCTTGGGTTCTAACCTGTTGCAT (site AGGTCCTCTAA) | 0.282
AGGTCCTCTTGGGTTCTAACCTGTTGCAT (site AGGTCCTCTAC) | 0.0867
AGGTCCTCTTGGGTTCTAACCTGTTGCAT (site AGGTCCTCTAG) | 0.707
AGGTCCTCTTGGGTTCTAACCTGTTGCAT (site AGGTCCTCTAT) | 2.24
